Test results as given in patent publication US7414066B2, “Amide compounds and medications containing the same technical field” (Kowa Company Ltd., priority 1999, dated 2008).

Question: For Cc1cc(SC(C)C)c(NC(=O)CCCCCCSc2nc3ccccc3s2)c(SC(C)C)n1 [Compound No. 856, 7-(benzothiazol-2-ylthio)-N-[2,4-bis(isopropylthio)-6-methyl-3-pyridyl]heptanamide], which melting point is on record?
Answer: The melting point was 74 to 76 °C.

Question: Which melting point does the source give for Cc1cc(SC(C)C)c(NC(=O)CCCCCCCSc2nc3ccccc3s2)c(SC(C)C)n1 [Compound No. 857, 8-(benzothiazol-2-ylthio)-N-[2,4-bis(isopropylthio)-6-methyl-3-pyridyl]octanamide] here?
Answer: Its melting point is 107 to 108 °C.

Question: With Cc1cc(SC(C)C)c(NC(=O)CSc2nc3ccccc3[nH]2)c(SC(C)C)n1 [Compound No. 861, 2-(benzimidazol-2-ylthio)-N-[2,4-bis(isopropylthio)-6-methyl-3-pyridyl]acetamide] as the compound, how does the melting point read?
Answer: Its melting point is 223 to 224 °C.

Question: With Cc1cc(SC(C)C)c(NC(=O)CCCCSc2nc3ccccc3[nH]2)c(SC(C)C)n1 [Compound No. 864, 5-(benzimidazol-2-ylthio)-N-[2,4-bis(isopropylthio)-6-methyl-3-pyridyl]pentanamide] as the compound, how does the melting point read?
Answer: Its melting point is 175 to 176 °C.

Question: Which melting point does the source give for Cc1cc(SC(C)C)c(NC(=O)CCCCCSc2nc3ccccc3[nH]2)c(SC(C)C)n1 [Compound No. 865, 6-(benzimidazol-2-ylthio)-N-[2,4-bis(isopropylthio)-6-methyl-3-pyridyl]hexanamide] here?
Answer: The melting point was 175 to 176 °C.

Question: Which melting point does the source give for Cc1cc(SC(C)C)c(NC(=O)CCCCCCSc2nc3ccccc3[nH]2)c(SC(C)C)n1 [Compound No. 866, 7-(benzoimidazol-2-ylthio)-N-[2,4-bis(isopropylthio)-6-methyl-3-pyridyl]heptanamide] here?
Answer: The melting point was 118 to 121 °C.

Question: With Cc1cc(SC(C)C)c(NC(=O)CCCCCCCCSc2nc3ccccc3[nH]2)c(SC(C)C)n1 [Compound No. 868, 9-(benzimidazol-2-ylthio)-N-[2,4-bis(isopropylthio)-6-methyl-3-pyridyl]nonanamide] as the compound, how does the melting point read?
Answer: The melting point was 112 to 114 °C.

Question: Which melting point does the source give for CSc1nc(C)nc(SC)c1NC(=O)CCCCCSc1nc2ccccc2o1 [Compound No. 1145, 6-(benzoxazole-2-ylthio)-N-[2-methyl-4,6-bis(methylthio)-5-pyrimidyl)hexanamide] here?
Answer: The melting point was 148 to 151 °C.

Question: With CSc1cc(C)nc(SC)c1NC(=O)CCCCCSc1nc2ncccc2o1 [Compound No. 1237, 6-(oxazolo[4,5-b]pyridin-2-ylthio)-N-[2,4-bis(methylthio)-6-methyl-3-pyridyl]hexanamide] as the compound, how does the melting point read?
Answer: The melting point was 132 to 133 °C.

Question: For COC(=O)c1cccc2nc(SCCCCCC(=O)Nc3c(SC)cc(C)nc3SC)oc12 [Compound No. 1238, 6-(7-methoxycarbonylbenzoxazol-2-ylthio)-N-[2,4-bis(methylthio)-6-methyl-3-pyridyl]hexanamide], which melting point is on record?
Answer: Its melting point is 141 to 142 °C.

Question: With COC(=O)c1cccc2nc(SCCCCCCCCC(=O)Nc3c(SC)cc(C)nc3SC)oc12 [Compound No. 1240, 9-(7-methoxycarbonylbenzoxazol-2-ylthio)-N-[2,4-bis(methylthio)-6-methyl-3-pyridyl]nonanamide] as the compound, how does the melting point read?
Answer: Its melting point is 126 to 128 °C.

Question: For CSc1cc(C)nc(SC)c1NC(=O)CSc1nc2cccc(C(F)(F)F)c2o1 [Compound No. 1247, 2-(7-trifluoromethylbenzoxazol-2-ylthio)-N-[2,4-bis(methylthio)-6-methyl-3-pyridyl]acetamide], which melting point is on record?
Answer: The melting point was 207 to 209 °C.

Question: For CSc1cc(C)nc(SC)c1NC(=O)CCCCSc1nc2cccc(C(F)(F)F)c2o1 [Compound No. 1250, 5-(7-trifluoromethylbenzoxazol-2-ylthio)-N-[2,4-bis(methylthio)-6-methyl-3-pyridyl]pentanamide], which melting point is on record?
Answer: Its melting point is 179 to 180 °C.

Question: For CSc1cc(C)nc(SC)c1NC(=O)CCCCCCSc1nc2cccc(C(F)(F)F)c2o1 [Compound No. 1252, 7-(7-trifluoromethylbenzoxazol-2-ylthio)-N-[2,4-bis(methylthio)-6-methyl-3-pyridyl]heptanamide], which melting point is on record?
Answer: Its melting point is 129 to 131 °C.

Question: Which melting point does the source give for CSc1cc(C)nc(SC)c1NC(=O)CCCCCCCSc1nc2cccc(C(F)(F)F)c2o1 [Compound No. 1253, 8-(7-trifluoromethylbenzoxazol-2-ylthio)-N-[2,4-bis(methylthio)-6-methyl-3-pyridyl]octanamide] here?
Answer: Its melting point is 115 to 116 °C.

Question: Which melting point does the source give for CSc1cc(C)nc(SC)c1NC(=O)CCCCSc1nc2c(C)c(Cl)cc(C(C)C)c2o1 [Compound No. 1260, 5-(5-chloro-7-isopropyl-4-methylbenzoxazol-2-ylthio)-N-[2,4-bis(methylthio)-6-methyl-3-pyridyl]pentanamide] here?
Answer: The melting point was 155 to 156 °C.

Question: For CSc1cc(C)nc(SC)c1NC(=O)CCCCCCSc1nc2c(C)c(Cl)cc(C(C)C)c2o1 [Compound No. 1262, 7-(5-chloro-7-isopropyl-4-methylbenzoxazol-2-ylthio)-N-[2,4-bis(methylthio)-6-methyl-3-pyridyl]heptanamide], which melting point is on record?
Answer: The melting point was 129 to 131 °C.

Question: With CCSc1cc(C)nc(SCC)c1NC(=O)CSc1nc2cccc(C(F)(F)F)c2o1 [Compound No. 1267, 2-(7-trifluoromethylbenzoxazol-2-ylthio)-N-[2,4-bis(ethylthio)-6-methyl-3-pyridyl]acetamide] as the compound, how does the melting point read?
Answer: Its melting point is 182 to 183 °C.

Question: Which melting point does the source give for CCSc1cc(C)nc(SCC)c1NC(=O)CCCSc1nc2cccc(C(F)(F)F)c2o1 [Compound No. 1269, 4-(7-trifluoromethylbenzoxazol-2-ylthio)-N-[2,4-bis(ethylthio)-6-methyl-3-pyridyl]butanamide] here?
Answer: Its melting point is 148 to 150 °C.

Question: For CCSc1cc(C)nc(SCC)c1NC(=O)CCCCSc1nc2cccc(C(F)(F)F)c2o1 [Compound No. 1270, 5-(7-trifluoromethylbenzoxazol-2-ylthio)-N-[2,4-bis(ethylthio)-6-methyl-3-pyridyl]pentanamide], which melting point is on record?
Answer: Its melting point is 155 to 156 °C.

Question: With CCSc1cc(C)nc(SCC)c1NC(=O)CCCCCCSc1nc2cccc(C(F)(F)F)c2o1 [Compound No. 1272, 7-(7-trifluoromethylbenzoxazol-2-ylthio)-N-[2,4-bis(ethylthio)-6-methyl-3-pyridyl]heptanamide] as the compound, how does the melting point read?
Answer: The melting point was 127 to 128 °C.

Question: Which melting point does the source give for CCSc1cc(C)nc(SCC)c1NC(=O)CCCCCCCSc1nc2cccc(C(F)(F)F)c2o1 [Compound No. 1273, 8-(7-trifluoromethylbenzoxazol-2-ylthio)-N-[2,4-bis(ethylthio)-6-methyl-3-pyridyl]octanamide] here?
Answer: The melting point was 99 to 100 °C.

Question: With CCSc1cc(C)nc(SCC)c1NC(=O)CCCCCCCCSc1nc2cccc(C(F)(F)F)c2o1 [Compound No. 1274, 9-(7-trifluoromethylbenzoxazol-2-ylthio)-N-[2,4-bis(ethylthio)-6-methyl-3-pyridyl]nonanamide] as the compound, how does the melting point read?
Answer: The melting point was 115 to 116 °C.

Question: For CCSc1cc(C)nc(SCC)c1NC(=O)CCCCSc1nc2c(C)c(Cl)cc(C(C)C)c2o1 [Compound No. 1280, 5-(5-chloro-7-isopropyl-4-methylbenzoxazol-2-ylthio)-N-[2,4-bis(ethylthio)-6-methyl-3-pyridyl]pentanamide], which melting point is on record?
Answer: The melting point was 141 to 142 °C.

Question: With CCSc1cc(C)nc(SCC)c1NC(=O)CCCCCCSc1nc2c(C)c(Cl)cc(C(C)C)c2o1 [Compound No. 1282, 7-(5-chloro-7-isopropyl-4-methylbenzoxazol-2-ylthio)-N-[2,4-bis(ethylthio)-6-methyl-3-pyridyl]heptanamide] as the compound, how does the melting point read?
Answer: Its melting point is 117 to 120 °C.

Question: Which melting point does the source give for CCSc1cc(C)nc(SCC)c1NC(=O)CCCCCCCSc1nc2c(C)c(Cl)cc(C(C)C)c2o1 [Compound No. 1283, 8-(5-chloro-7-isopropyl-4-methylbenzoxazol-2-ylthio)-N-[2,4-bis(ethylthio)-6-methyl-3-pyridyl]octanamide] here?
Answer: The melting point was 82 to 84 °C.

Question: With CCSc1cc(C)nc(SCC)c1NC(=O)CCCCCCCCSc1nc2c(C)c(Cl)cc(C(C)C)c2o1 [Compound No. 1284, 9-(5-chloro-7-isopropyl-4-methylbenzoxazol-2-ylthio)-N-[2,4-bis(ethylthio)-6-methyl-3-pyridyl]nonanamide] as the compound, how does the melting point read?
Answer: The melting point was 93 to 94 °C.

Question: For Cc1cc(SC(C)C)c(NC(=O)CCCSc2nc3cccc(C(F)(F)F)c3o2)c(SC(C)C)n1 [Compound No. 1289, 4-(7-trifluoromethylbenzoxazol-2-ylthio)-N-[2,4-bis(isopropylthio)-6-methyl-3-pyridyl]butanamide], which melting point is on record?
Answer: Its melting point is 135 to 136 °C.

Question: Which melting point does the source give for Cc1cc(SC(C)C)c(NC(=O)CCCCSc2nc3cccc(C(F)(F)F)c3o2)c(SC(C)C)n1 [Compound No. 1290, 5-(7-trifluoromethylbenzoxazol-2-ylthio)-N-[2,4-bis(isopropylthio)-6-methyl-3-pyridyl]pentanamide] here?
Answer: The melting point was 118 to 120 °C.

Question: Which melting point does the source give for Cc1cc(SC(C)C)c(NC(=O)CCCCCSc2nc3cccc(C(F)(F)F)c3o2)c(SC(C)C)n1 [Compound No. 1291, 6-(7-trifluoromethylbenzoxazol-2-ylthio)-N-[2,4-bis(isopropylthio)-6-methyl-3-pyridyl]hexanamide] here?
Answer: Its melting point is 102 to 103 °C.

Question: Which melting point does the source give for Cc1cc(SC(C)C)c(NC(=O)CCCSc2nc3c(C)c(Cl)cc(C(C)C)c3o2)c(SC(C)C)n1 [Compound No. 1299, 4-(5-chloro-7-isopropyl-4-methylbenzoxazol-2-ylthio)-N-[2,4-bis(isopropylthio)-6-methyl-3-pyridyl]butanamide] here?
Answer: The melting point was 141 to 143 °C.

Question: With Cc1cc(SC(C)C)c(NC(=O)CCCCSc2nc3c(C)c(Cl)cc(C(C)C)c3o2)c(SC(C)C)n1 [Compound No. 1300, 5-(5-chloro-7-isopropyl-4-methylbenzoxazol-2-ylthio)-N-[2,4-bis(isopropylthio)-6-methyl-3-pyridyl]pentanamide] as the compound, how does the melting point read?
Answer: Its melting point is 143 to 145 °C.

Question: For Cc1cc(SC(C)C)c(NC(=O)CCCCCSc2nc3c(C)c(Cl)cc(C(C)C)c3o2)c(SC(C)C)n1 [Compound No. 1301, 6-(5-chloro-7-isopropyl-4-methylbenzoxazol-2-ylthio)-N-[2,4-bis(isopropylthio)-6-methyl-3-pyridyl]hexanamide], which melting point is on record?
Answer: The melting point was 99 to 101 °C.

Question: With Cc1cc(SC(C)C)c(NC(=O)CCCCCCSc2nc3c(C)c(Cl)cc(C(C)C)c3o2)c(SC(C)C)n1 [Compound No. 1302, 7-(5-chloro-7-isopropyl-4-methylbenzoxazol-2-ylthio)-N-[2,4-bis(isopropylthio)-6-methyl-3-pyridyl]heptanamide] as the compound, how does the melting point read?
Answer: The melting point was 91 to 93 °C.
